Measurements as given in ChEMBL document CHEMBL1141275, “Sesquiterpenoids from Bombax malabaricum” (J Nat Prod, 2007).
Active and inactive are the calls of the source. The calls are words filed in the database; no cut-off is given here.

Key:
Type in all cases: functional, cell-based
HGC-27 = experiment: Cytotoxicity against human HGC27 cells by MTT assay
A549 = experiment: Cytotoxicity against human A549 cells by MTT assay
HeLa = experiment: Cytotoxicity against human HeLa cells by MTT assay

SMILES	IC50 (HGC-27) [µM]	further results
COc1c(O)c(C)cc2c1C(=O)C(=O)C=C2C(C)C [BOMBAMALONE C]	> 10	–
COC1=C(C)C(=O)c2c(C(C)C)cc(O)c(C(=O)O)c2C1=O	> 10	–
COc1c(O)c(C)cc2c(C(C)C)cc(O)c(C=O)c12	> 10	–
COc1c(C)cc2c(C(C)C)cc(O)c3c2c1OC3=O	> 10	–
CC1=C2OC(C)(C)c3cc4c(c(c32)C(=O)C1=O)C(C)(O)C=CO4 (stereo not drawn) [BOMBAMALONE B]	> 10	Activity (A549): inactive; Activity (HeLa): inactive
CC(=O)O[C@H]1C(=O)[C@@]2(C)[C@H]([C@H](OC(=O)c3ccccc3)[C@]3(O)C[C@H](OC(=O)[C@H](O)[C@@H](NC(=O)c4ccccc4)c4ccccc4)C(C)=C1C3(C)C)[C@]1(OC(C)=O)CO[C@@H]1C[C@@H]2O [PACLITAXEL]	0.778	IC50 (A549): 0.0126 µM; IC50 (HeLa): 0.0056 µM
Cc1cc2c(cc1O)[C@@](C)(O)C(=O)C=C2C(C)C [LACINILENE C]	> 10	–
COC1=C2OC(=O)c3c(O)cc(C(C)C)c(c32)C(=O)C1(C)O (stereo not drawn) [BOMBAMALONE A]	> 10	–
CC1=C2OC(C)(C)c3cc(O[C@@H]4O[C@H](CO)[C@@H](O)[C@H](O)[C@H]4O)c(C(=O)O)c(c32)C(=O)C1=O [BOMBAMALOSIDE]	> 10	–
